Data on 16 compounds can be found in patent publication US6887873B2, “Triazine derivatives and their application as antitelomerase agents” (Aventis Pharma S.A., priority 2001, dated 2005).

In general, pIC50 refers to the negative decadic logarithm of the IC50, by convention in mol/L.

Series [1] relates to human telomerease (HL60 cell extract). The series is described as follows: Antitelomerease activity: extension of oligonucleotide TS followed by PCR amplification, with HL60 extract. The following applies: read-out: TRAP IC50. The class given is biochemical. Put shortly: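 HL60 CHAPS-lysate extract extends TS primer (15 min, 30 °C) with compound at 10, 1, 0.1 and 0.01 µM, followed by 30-cycle PCR with TS and CXext. Products resolved on 12% acrylamide and quantified; % inhibition versus enzyme control and blank, IC50 read from semilog plot.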

For the next series, the system named is A549 cells. Put plainly: Cytotoxic activity on human tumour line A549, neutral red, 96 hours. It is filed as cell-based. The following applies: read-out: Cytotox. A549 IC50. The method, then: The cytotoxic biological activity on human tumour lines is determined according to the following experimental protocol:
The human cell lines A549 are obtained from ATCC (American Type Culture Collection, Rockville, USA). The A549 cells are cultured in a layer in a culture flask in RPMI 1640 medium containing L-glutamine at 2 mM, penicillin 200 U/ml, streptomycin 200 μg/ml and supplemented with 10% heat-inactivated foetal calf serum. The KB cells are cultured in a layer in a culture flask in Dulbelco's medium containing L-glutamine at 2 mM, penicillin 200 U/ml, streptomycin 200 μg/ml and supplemented with 10% heat-inactivated foetal calf serum.
The cells at the exponential growth phase are trypsinized, washed in 1×PBS and are inoculated in 96-well microplates (Costar) in an amount of 4×10^4 cells/ml for A549 and of 1.5×10^4 cells/ml (0.2 ml/well) and then incubated for 96 hours in the presence of variable concentrations of product to be studied (10, 1, 0.1 and 0.01 μM, each point in quadruplicate). 16 hours before the end of the incubation, 0.02% final of neutral red is added to each well. At the end of the incubation, the cells are washed with 1×PBS and lysed with 1% sodium lauryl sulphate. The cellular incorporation of the dye, which reflects cellular growth, is evaluated by spectro-photometry at a wavelength of 540 nm for each sample with the aid of a Dynatech MR5000 reading apparatus.
For each compound concentration tested, the results are expressed as percentage of inhibition of cellular growth and calculated from the untreated control and the culture medium free of cells (blank) according to the following formula: (compound value−blank value/cell control value−blank value)×100.
The concentration of compound inducing a 50% inhibition of growth (IC50) is determined with the aid of a semilogarithmic graphical representation of the inhibition values obtained as a function of each of the compound concentrations tested.
A compound is considered to be active as cytotoxic agent if the concentration inhibiting the growth of the tumour cells tested by 50% is in particular less than 10 μM.

Molecules are shown by their SMILES. pIC50: −log10 of the molar value. Where two headings read alike, the source gives them in different places.

Consider `Cc1cc(N(C)C)c2cc(Nc3nc(NCCCN(C)C)nc(Nc4ccc5nc(C)cc(N(C)C)c5c4)n3)ccc2n1` [Example 1, 2,4-bis(4-dimethylamino-2-methylquinolin-6-yl)amino-6-(3-dimethylaminopropyl)amino-[1,3,5]triazine], for which the negative logarithm of the IC50 (pIC50) in series [1] is 6.26; with A549 cells (Homo sapiens, A549, A549) it was 6.64.

Turning to `Cc1cc(N)c2cc(Nc3nc(Nc4ccc5nc(C)cc(N)c5c4)nc(Nc4ccc5nc(C)cc(N)c5c4)n3)ccc2n1` [Example 2, 2,4,6-tris(4-amino-2-methylquinolin-6-yl)amino-[1,3,5]triazine], the pIC50 is 7.22 in series [1] and 5.00 with A549 cells (Homo sapiens, A549, A549).

On to `Cc1cc(N)c2cc(Nc3nc(Nc4ccc5nc(C)cc(N(C)C)c5c4)nc(Nc4ccccc4Cl)n3)ccc2n1` [Example 3], for which the pIC50 was 5.68 in series [1] and 5.22 with A549 cells (Homo sapiens, A549, A549).

For the compound `Cc1cc(N)c2cc(Nc3nc(Nc4ccc(N5CCNCC5)cc4)nc(Nc4ccc5nc(C)cc(N)c5c4)n3)ccc2n1` [Example 15], the pIC50 is 6.72 in series [1] and 5.73 in the series on A549 cells (Homo sapiens, A549, A549).

`Cc1cc(N)c2cc(Nc3nc(Nc4ccc5nc(C)cc(N)c5c4)nc(NC4CN5CCC4CC5)n3)ccc2n1` (centres unmarked) [Example 17, 2,4-bis(4-amino-2-methylquinolin-6-yl)amino-6-(quinuclidin-3-yl)amino-[1,3,5]triazine]: the pIC50 was 7.00 in series [1] and 5.56 in the series on A549 cells (Homo sapiens, A549, A549).

In the case of `Cc1cc(N(C)C)c2cc(Nc3nc(Nc4ccncc4)nc(Nc4ccc5nc(C)cc(N(C)C)c5c4)n3)ccc2n1` [Example 18], the pIC50 in series [1] is 5.92; with A549 cells (Homo sapiens, A549, A549) it was 5.54.

Regarding `Cc1cc(N(C)C)c2cc(Nc3nc(Nc4ccc5nc(C)cc(N(C)C)c5c4)nc(C4CCN(C)CC4)n3)ccc2n1` [Example 19, 2,4-bis(4-dimethylamino-2-methylquinolin-6-yl)amino-6-(1-methylpiperidin-4-yl)-[1,3,5]triazine], the pIC50 in series [1] was 6.28; with A549 cells (Homo sapiens, A549, A549), 6.52.

As to `Cc1cc(N(C)C)c2cc(Nc3nc(Nc4ccc5nc(C)cc(N(C)C)c5c4)nc(N4CCN(C)CC4)n3)ccc2n1` [Example 20, 2,4-bis(4-dimethylamino-2-methylquinolin-6-yl)amino-6-(4-methylpiperazin-1-yl)-[1,3,5]triazine], the negative logarithm of the IC50 (pIC50) in series [1] is 6.36; in the series on A549 cells (Homo sapiens, A549, A549) it was 6.46.

As for `Cc1cc(N(C)C)c2cc(Nc3nc(NCc4ccncc4)nc(Nc4ccc5nc(C)cc(N(C)C)c5c4)n3)ccc2n1` [Example 27, 2,4-bis(4-dimethylamino-2-methylquinolin-6-yl)amino-6-(pyridin-4-yl)methylamino-[1,3,5]triazine], the pIC50 in series [1] is 6.22; with A549 cells (A549) it was 6.00.

Consider `CCN(CCNc1nc(Nc2ccc3nc(C)cc(N(C)C)c3c2)nc(Nc2ccc3nc(C)cc(N(C)C)c3c2)n1)c1cccc(C)c1` [Example 28], for which the pIC50 in series [1] is 6.05; in the series with A549 cells (Homo sapiens, A549, A549), 5.82.

For the compound `Cc1cc(N)c2cc(Nc3nc(Nc4ccc5nc(C)cc(N)c5c4)nc(NC4CCN(Cc5ccccc5)C4)n3)ccc2n1` (centres unmarked) [Example 41], the pIC50 in series [1] was 6.44; in the series with A549 cells (Homo sapiens, A549, A549), 5.00.

For `Cc1cc(N)c2cc(Nc3nc(Nc4ccc5nc(C)cc(N)c5c4)nc(N4CCN(C5CCCC5)CC4)n3)ccc2n1` [Example 43], the pIC50 in series [1] is 6.74; in the series with A549 cells (Homo sapiens, A549, A549), 5.00.

With `Cc1cc(N)c2cc(Nc3nc(NCc4ccc([N+](C)(C)C)cc4)nc(Nc4ccc5nc(C)cc(N)c5c4)n3)ccc2n1` [Example 60], the pIC50 in series [1] was 5.52; with A549 cells (Homo sapiens, A549, A549), 5.24.

Regarding `Cc1cc(N)c2cc(Nc3nc(Nc4ccc5nc(C)cc(N)c5c4)nc(N4CCN(C(=O)c5ccco5)CC4)n3)ccc2n1` [Example 68], the pIC50 in series [1] was 6.52; in the series with A549 cells (Homo sapiens, A549, A549), 4.94.

`Cc1cc(N)c2cc(Nc3nc(Nc4ccc5nc(C)cc(N)c5c4)nc(N4CCN(C5CCCCCCC5)CC4)n3)ccc2n1` [Example 77]: the pIC50 in series [1] was 6.32; in the series with A549 cells (Homo sapiens, A549, A549), 5.25.

As to `Cc1cc(N)c2cc(Nc3nc(Nc4ccc5nc(C)cc(N)c5c4)nc(N4CCCC4c4cccnc4)n3)ccc2n1` (centres unmarked) [Example 86], the pIC50 in series [1] is 6.70; in the series on A549 cells (Homo sapiens, A549, A549), 4.72.
